From patent publication US5849753A, “Pyridyl imidazole derivatives and processes for the preparation thereof” (Korea Research Institute of Chemical Technology, priority 1994, dated 1998)

Columns and labels:
renal hypertensive rat [1] = assay: Blood pressure lowering effect in renal hypertension (renal hypertensive rats, intravenous or oral); format: in vivo, male Sprague-Dawley rats; conditions: 3 mg, read-out: Maxium Blood Pressure Lowering Effect(%)
Outline: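 Renal hypertension induced in male Sprague-Dawley rats by complete left renal artery ligation at 4 weeks of age; rats with systolic pressure above 180 mmHg at 6–8 days were used. Compounds given i.v. (in 0.05N KOH) or p.o. (Tween 80 suspension); blood pressure and heart rate recorded via carotid catheter up to 24 h, compared with losartan.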

renal hypertensive rat [2] = assay: Blood pressure lowering effect on oral administration to rats at several doses; format: in vivo, male Sprague-Dawley rats
Excerpt: To induce renal hypertension, left renal artery of 4 week-old male Sprague-Dawley rats(from The Korea Research Institute of Chemical Technology) was ligated. The rats were anesthetized with ether and the surgical region on the left abdomen of the rat was shaved, disinfected, and then incised about 1 cm vertically. The renal artery near abdominal aorta was isolated carefully from surrounding tissues and veins, and then ligated completely with a suture(4/0 sterile surgical silk). The muscular strata and skin of the surgical area were sutured with a suture(4/0 sterile surgical silk). The surgical region was disinfected to prevent infection and thereafter, 200 to 250 mg/Kg/day of cephazolin sodium was injected intramuscularly for 2 days. 6 to 8 days after the ligation, rats showing systolic pressure of more than 180 mmHg were selected for renal hypertension test. The blood pressure was determined by a tail-cuff method from the tail under unanesthetized condition(Gerold, M. et al., Arzneimittrel-Forsch, 18, 1285(1968)).
Each of the compounds to be tested was administered intravenously or orally into the renal hypertensive rat. The blood pressure of the rats was determined by direct method(Chiu, A. T. et al., J. Pharmacol. Exp. Ther. 250, 867(1989)) using a catheter. The rats were anesthetized with ketamine hydrochloride(125 mg/kg, i.p.) and a catheter was filled with saline and inserted into a carotid artery and carotid vein. The surgical area was sutured with a metal clip. The rats were relaxed at least 3 hours and the catheter in the carotid artery was adapted to an isotec pressure transducer to determine their blood pressure and heart rate with a physiograph(Linearcorder WR3310). After the blood pressure was stabilized, the test compound was administered intravenously or orally. For intravenous administration, the administered volume and washing volume were 1.0 ml/Kg and 0.2 ml, respectively. The blood pressure and heart rate were measured in regular intervals up to 24 hours after the administration of the test compound and compared with those measured after the administration of the control compound Losartan.
The test compound was dissolved in 0.05N KOH for intravenous administration and suspended in Tween 80 for oral administration.
(iii) Blood pressure lowering effect The present compounds, Losartan(Dup 753) and the Merck compound were administrated orally to rats in 10, 3, 1, 0.3 and 0.1 mg/kg under the same condition as in (ii) and the blood pressure lowering effect was determined.

[3] = system: furosemide-administered dogs; assay: Duration of action in furosemide-administered dogs; format: in vivo, dog; conditions: for blood pressure lowering effect with time: 1 mg, per os
Procedure: The test dogs were anesthetized with 30 mg/kg of pentobarbital sodium by intravenous injection and the left femoral artery and femoral vein were separated carefully. Silicone catheter, specially prepared and filled with saline treated with heparin(1,000 IU/ml), was cannulated into the blood vessels. After the surgery, the dogs were constrained to measure their blood pressure continuously with Gould 2000 physiograph adapted to a Grass P23 XL pressure transducer; and their heart rates were monitored with ECG/Biotacho amplifier. The dogs were tested at least 2 days after the surgery.
10 mg/kg of furosemide was injected intramuscularly 18 hours(in case of intravenous injection, 2 hours) before the beginning of the test (administration of the test compound) to improve the activity of renin in blood plasma. After the injection of furosemide, neither food nor water was provided. […] The blood pressure and heart rate were measured up to 8 hours after the administration of each test compound.
The compound of Example 8 and the Merck compound were administered orally to the furosemide-administrated dogs as in test 3(i), and blood pressure lowering effect was measured with time.

In the case of `CCCCc1nc2cc(-c3ccccn3)c(C(OC)OC)nc2n1Cc1ccc(-c2ccccc2-c2nnn[nH]2)cc1` [Example 8, 2-butyl-5-dimethoxymethyl-6-(pyridin-2-yl)-3-[2'-(1H-tetrazol-5-yl)-biphenyl-4-ylmethyl]-3H-imidazo[4,5-b]pyridine], the change in vivo at 3 mg (renal hypertensive rat [1]) is reported as -50%, the “blood pressure lowering effect” value (renal hypertensive rat [2]; 1 mg/kg) is reported as 32% and the “blood pressure lowering effect” value (renal hypertensive rat [2]; 3 mg/kg) is reported as 35-37%. The “blood pressure lowering effect with time” value ([3]; 0 min) was 0%, the “blood pressure lowering effect with time” value ([3]; 10 min) was 0% and the “blood pressure lowering effect with time” value ([3]; 20 min) was -8%. For the same compound, the “blood pressure lowering effect with time” value ([3]; 30 min) was -16.2%, the “blood pressure lowering effect with time” value ([3]; 60 min) was -23.8% and the “blood pressure lowering effect with time” value ([3]; 90 min) was -26.0%. For the same compound, the “blood pressure lowering effect with time” value ([3]; 120 min) was -30.0%, the “blood pressure lowering effect with time” value ([3]; 150 min) was -31.7% and the “blood pressure lowering effect with time” value ([3]; 180 min) was -31.7%. For the same compound, the “blood pressure lowering effect with time” value ([3]; 210 min) was -31.2%, the “blood pressure lowering effect with time” value ([3]; 240 min) was -32.7% and the “blood pressure lowering effect with time” value ([3]; 270 min) was -33.9%. The “blood pressure lowering effect with time” value ([3]; 300 min) was -34.9%, the “blood pressure lowering effect with time” value ([3]; 330 min) was -37.0% and the “blood pressure lowering effect with time” value ([3]; 360 min) was -35.5%. The “blood pressure lowering effect with time” value ([3]; 390 min) was -36.4%, the “blood pressure lowering effect with time” value ([3]; 420 min) was -34.9% and the “blood pressure lowering effect with time” value ([3]; 450 min) was -33.0%. The “blood pressure lowering effect with time” value ([3]; 480 min) was -33.0% and the “maximum blood pressure lowering effect lasted up to (after the administration)” value ([3]; furosemide-administered dogs, oral, as shown in Table 6) was “up to 8 hours”.
